Results on three compounds are retold here after patent publication US7018642B2 (The Procter & Gamble Company, priority 2001, dated 2006).

Test [1] concerns P. aeruginosa strain PAO1. Kind of test: Improved biofilm dispersion screen (already-formed biofilms, crystal violet). The following applies: Pseudomonas aeruginosa, 30 mM NaOH step, positive = dispersion, negative = enhancement of pre-existing biofilm, quadruplicate, read-out: average percentage reduction of biofilm relative to the two control values (dispersion). Type of test: cell-based. In short, it runs like this:
(§1)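 Biofilms pre-grown 24 h without compound, then given fresh medium with compound at 390 μM for another 22–26 h. NaOH wash in PBS (0 mM S. epidermidis, 20 mM P. fluorescens, 30 mM P. aeruginosa; 30 min, room temperature), then crystal violet staining. Percent biofilm reduction calculated against t0 and DMSO t24 controls, quadruplicates; negative values mean enhancement.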

For test [2], the system named is S. epidermidis strain ATCC 35984. Described as above. Type of test: cell-based. As to conditions: Staphylococcus epidermidis, ATCC35984, no NaOH, positive = dispersion, negative = enhancement of pre-existing biofilm, quadruplicate, read-out: average percentage reduction of biofilm relative to the two control values (dispersion). In short, it runs like this:
as §1

Test [3] relates to S. epidermidis. The experiment in a line: 3-piece growth-chamber array (3P-GCA) biofilm growth test on bathroom tile. Type of test: cell-based, Staphylococcus epidermidis. As to conditions: 72 hours; for optical density of extracted crystal violet (biofilm growth): S. epidermidis on standard white matte bathroom tile, two medium exchanges, replicate wells A, B, C, smaller = prevention, inoculated control 1.870-2.387; for biofilm prevention activity in 3P-GCA method (in words): S. epidermidis on white matte bathroom tile. The protocol: Wells in the block bottom are filled with 0.5–1 mL of the media described in Reference Example 1, and inoculated with 5–10 μL of overnight cultures of the bacterial strains described in Reference Example 1. The block bottom and top that contain a standard-size, white bathroom tile are then aligned and clamped together, and the assembly placed on a tissue culture rotator (VWR Scientific) set at a rotation speed of 1–3 rpm, or in a shaking incubator, at the appropriate temperature, for 24 hours. Optionally, the 1 mL liquid medium in each well is then replaced with fresh medium, and incubation continued for an additional 24 hours; this sequence of medium replacement and continued growth is done from 1–3 times, to generate biofilms of the desired thickness. After growth, the block bottom is removed, the liquid is removed and replaced with 200 μL of a 1% CV solution (in ˜10% ethanol). The block is then reassembled, re-positioned on the tissue culture rotator and incubated with the settings described above for 15–75 minutes to stain the biofilms. The block pieces are disassembled, and the top block that contains the tile surface is rinsed under a gentle stream of deionized water until all unbound dye is visibly removed. Optionally, any excessive dye adsorbed to the sides of the wells of the block bottom is removed using a test tube brush and a commonly available detergent formulation; this helps to reduce any background due to non-specific staining that can sometimes occur. As a faster alternative, the stained block bottom is simply interchanged with a new or pre-cleaned block bottom. Bound dye on the tile surface is then extracted by pipetting 0.5–1.0 mL of a solution of 1% sodium deoxycholate in 95% ethanol (and optionally 4–6 glass beads 1–3 mm in diameter to assist dye removal) into each well, reassembling the block top and bottom, and either repositioning on the tissue culture rotator followed by incubation using the settings described above for 0.5–2 hours, or alternatively, vortexing vigorously for 1–5 minutes. Subsequently, either undiluted or diluted (in ethanol) samples of extracted CV pipetted from the disassembled blocks are transferred to flat bottom, polystyrene microtiter plates and absorbances are measured in a microplate reader, and compared to controls, as described in Reference Example 1. […] Use of the 3P-GCA is the same as for the 2P-GCA described in Reference Example 5, except that when liquid growth media are being replaced in the wells of the block bottom, only one of the lid assemblies is removed. This arrangement has the advantage that if sensitive biofilms are being investigated, they are not disturbed at all during the entire method. If the biofilms being investigated are not sensitive to disturbance, then an additional advantage of the 3P-GCA is that it can be used to grow biofilms on both surfaces 30 of each lid assembly 90, especially if the 3P-GCA is mounted on a tissue culture rotator for biofilm growth, such that liquid growth media contacts both surfaces 30. […] Polypropylene block components are used. Data are reported as optical density measurements for 3 replicates of inoculated wells per compound tested, with 3 inoculated and three uninoculated control well replicates, corresponding to columns 1 (compound 32), 2 (compound 168), 3 (compound 226), 4 (inoculated control), and 5 (uninoculated control). Smaller numbers indicate prevention of biofilm growth.

Several values for one entry are separate records, joined by “and”; a condition that tells them apart may be missing. Identical values can stand only once.

Take `CCCCCCCCCCNC(=O)[C@@H]1CCCN1` [Compound 32, L-proline n-decyl amide]: the inhibition at 390 µM in test [1] is -107%. In addition, in test [2], the inhibition at 390 µM was found to be 72%. Also, in test [3], the “optical density of extracted crystal violet (biofilm growth)” value (from here on “optical density”) was 0.175 and 0.244 and 0.207; the “biofilm prevention activity in 3P-GCA method (in words)” value (from here on “biofilm prevention activity”) is listed as “strong biofilm prevention activity”.

For `CCCCCCCCCCCCNC(=O)[C@@H]1CCCN1` [Compound 168], the inhibition at 390 µM in test [1] came to 17%; in test [2] it was 78%. Also, the “optical density” value in test [3] is 1.981 and 1.581 and 1.517. Further, in test [3], the “biofilm prevention activity” value is “much more modest effect”.

Take `O=C(NCCCCCCCCCCCCNC(=O)[C@H]1CCCN1)[C@H]1CCCN1` [Compound 226, D-proline 1,12-diaminododecane bisamide]: the inhibition at 390 µM in test [1] was 7%; in test [2], 26%. Besides, the “optical density” value in test [3] is 0.202 and 0.269 and 0.147. For the same compound, in test [3], the “biofilm prevention activity” value is “strong biofilm prevention activity”.
